From patent US9181290B2, “Inhibition of biofilm formation by 1,2,3,4,6-penta-O-galloyl-D-glucopyranose” (CHANG GUNG UNIVERSITY, priority 2011, dated 2015)

Tests used:
S. aureus SA113 [1] = assay: Scanning electron microscopy of cells on polycarbonate discs; assay type: cell-based, Staphylococcus aureus; details: 3.13 μM, 6 hrs
Procedure: S. aureus SA113 cells were grown on polycarbonate discs in the presence or absence of 3.13 μM β-PGG. After 6 hours incubation, the discs were washed three times with PBS to remove planktonic cells and then prepared for SEM examination as described elsewhere (Guo-Xian Wei et al. (2006), supra). The samples thus prepared were observed using a Hitachi S-5000 scanning electron microscope.

[2] = tested on: clinical strains SA289, SA44, SA435 and SA703; assay: Biofilm formation by four less sensitive clinical strains at 50 μM (data not shown); assay type: cell-based, Staphylococcus aureus; details: across the four clinical strains
Procedure: (§1) An overnight bacterial culture was 200-fold diluted with TSBg, and a 200 μL aliquot of the diluted culture was seeded into each well of 96-well polystyrene microtiter plates and incubated at 37° C. for a designated period of time. Cell growth was determined by measuring the absorbance at 578 nm (A578) with a microtiter plate reader (SpectraMax 340, Molecular Devices). After washing with PBS twice to remove suspended cells, the wells were stained with 0.1% (w/v) crystal violet in 10% ethanol and then treated with 30% acetic acid in dH2O, followed by detecting the absorbance at 595 nm (A595) with the microtiter plate reader to quantify the amount of biofilm formed on polystyrene surface.

[3] = tested on: S. aureus SA113Δica (ATCC 35556Δica::tet); assay: Biofilm formation by ica deletion mutant on polystyrene surface; assay type: cell-based, Staphylococcus aureus; details: 6 hrs
Procedure: as §1

[4] = tested on: polysaccharide intercellular adhesion (PIA) production by S. aureus SA113; assay: Quantification of PIA by chemiluminescence (WGA-biotin/HRP-streptavidin); assay type: cell-based, Staphylococcus aureus; details: 6 hrs; for decrease of the amount of PIA formed on the cell surface: densitometer, untreated = 100%
Procedure: The amount of PIA was determined by chemiluminescence detection using horseradish peroxidase-conjugated streptavidin (Pierce) according to a method described elsewhere (S. Schlag et al. (2007), supra). Briefly, a tested bacterial strain prepared in TSBg broth was added with β-PGG at a designated concentration and then cultured in a 9 cm petri dish for 6 hrs. The bacterial cells grown in the petri dish were collected by scraping, followed by centrifugation, and the resultant cell pellets were redissolved by addition of 3 mL of 0.5 M EDTA (pH 8.0) for every gram (wet weight) of cell pellet, followed by boiling at 100° C. for 10 min. After centrifugation at 10,000 g for 30 min, the resultant supernatant was 100-fold diluted. An 80 μL aliquot of the diluted supernatant was incubated with 20 μL of proteinase K (10 mg/mL, in dH2O) at 37° C. for 2 hrs, followed by blotting onto a PVDF membrane (Millipore) using a 96-well dot-blot apparatus. After blotting, the membrane was dried and soaked in a first blocking buffer (containing 3% bovine serum albumin (BSA) and 0.05% Tween-20 in PBS), followed by incubation at room temperature for 1 hr in the first blocking buffer containing 0.8 μg/mL wheat germ agglutinin conjugated with biotin (WGA-biotin, Sigma-Aldrich). After sequentially washing with the first blocking buffer and a second blocking buffer (containing 1% BSA and 0.05% Tween-20 in PBS), the membrane was incubated with horseradish peroxidase-conjugated streptavidin (Pierce) for 30 min, and washed 4 times with the first blocking buffer, followed by incubation with 1 mL of a substrate reagent (Luminol/Enhancer solution and Stable Peroxide solution, Pierce) at room temperature for 5 min. Thereafter, the membrane was detected by autoradiography using X-ray film, and the intensity of each spot formed on the X-ray film was quantified using a densitometer (LAS-3000, Fujifilm). The relative PIA amount produced by the tested bacterial strain was determined based on the detected intensity, with the amount of PIA from bacterial cells without PGG treatment being set as 100%.
To detect PIA in culture medium, the medium was concentrated using an Amicon-Ultra4 centrifuge filter (Millipore, Billerica, Mass., USA) prior to extraction.
Similar experiments were performed using four clinical isolates of S. aureus, namely MSSA strains SA13 and SA288, and MRSA strains SA44 and SA 130.

S. aureus SA113 [5] = assay: Biofilm formation on β-PGG/polyaniline-coated silicon rubber discs (safranin staining); assay type: cell-based; details: Staphylococcus aureus, polyaniline carrier, 24 hrs
Procedure: β-PGG (stock conc.: 8.89 μg/mL in DMSO) in various amounts was evenly mixed with a fixed amount of polyaniline (40 μL, 3 mg/mL in DMSO) so as to provide a 100 μL β-PGG/polyaniline mixture with a final β-PGG concentration of 0.47 μM, 0.94 μM, 1.89 μM, 3.78 μM, 4.73 μM or 5.67 μM. The resultant β-PGG/polyaniline mixture was coated on the inner surfaces of the wells of 96-well polystyrene microtiter plates in an amount of 100 μL per well. After β-PGG coating, the plates were dried in a vacuum chamber, followed by UV sterilization for 30 min. An overnight culture of S. aureus SA113 was 200-fold diluted with TSBg, and a 200 μL aliquot of the diluted culture was seeded into each well of the β-PGG-coated microtiter plates. After culturing at 37° C. for 24 hrs, the wells were washed twice with PBS, and then examined by safranin staining according to a method described earlier (Christine Heilmann et al. (1996), Infect. Immun., 64 (1):277-282), so as to quantify the amount of biofilm formed on the β-PGG-coated polystyrene surface.
Meanwhile, 6-mm diameter silicon rubber discs, which were cut from a sheet of 2-mm thick silicon rubber with a paper punch, were also coated with the resultant β-PGG mixture in an amount of 100 μL per disc. […] After incubation at 37° C. for 24 hrs, each silicon rubber disc was subjected to safranin staining, so as to quantify the amount of biofilm formed thereon.

[6] = tested on: PIA production by clinical isolates of S. aureus (SA13, SA288, SA44, SA 130); assay: Quantification of PIA in four clinical isolates; assay type: cell-based, Staphylococcus aureus; details: 12.5 μM and 25 μM, 6 hrs
Procedure: The amount of PIA was determined by chemiluminescence detection using horseradish peroxidase-conjugated streptavidin (Pierce) according to a method described elsewhere (S. Schlag et al. (2007), supra). Briefly, a tested bacterial strain prepared in TSBg broth was added with β-PGG at a designated concentration and then cultured in a 9 cm petri dish for 6 hrs. The bacterial cells grown in the petri dish were collected by scraping, followed by centrifugation, and the resultant cell pellets were redissolved by addition of 3 mL of 0.5 M EDTA (pH 8.0) for every gram (wet weight) of cell pellet, followed by boiling at 100° C. for 10 min. After centrifugation at 10,000 g for 30 min, the resultant supernatant was 100-fold diluted. An 80 μL aliquot of the diluted supernatant was incubated with 20 μL of proteinase K (10 mg/mL, in dH2O) at 37° C. for 2 hrs, followed by blotting onto a PVDF membrane (Millipore) using a 96-well dot-blot apparatus. […] Thereafter, the membrane was detected by autoradiography using X-ray film, and the intensity of each spot formed on the X-ray film was quantified using a densitometer (LAS-3000, Fujifilm). The relative PIA amount produced by the tested bacterial strain was determined based on the detected intensity, with the amount of PIA from bacterial cells without PGG treatment being set as 100%. […]

Acinetobacter baumannii = assay: Anti-biofilm activity (data not shown); assay type: cell-based
S. aureus SA113 [7] = assay: Adherence assay: β-PGG added at different times after inoculation, biofilm by crystal violet at 6 hours; assay type: cell-based, Staphylococcus aureus; details: for reduction of biofilm formation: read at 6 hours
Procedure: At 6 hours after seeding, the wells were subjected to crystal violet staining to determine the amounts of biofilm formed on the inner surfaces of the wells of polystyrene microtiter plates or on the polycarbonate discs.

For O=C(OC[C@H]1O[C@@H](OC(=O)c2cc(O)c(O)c(O)c2)[C@H](OC(=O)c2cc(O)c(O)c(O)c2)[C@@H](OC(=O)c2cc(O)c(O)c(O)c2)[C@@H]1OC(=O)c1cc(O)c(O)c(O)c1)c1cc(O)c(O)c(O)c1 [β-PGG, 1,2,3,4,6-penta-O-galloyl-β-D-glucopyranose], the “web structure (likely PIA) on polycarbonate surface by SEM” value (S. aureus SA113 [1]) was “caused the web structure to disappear”, the “reduction of biofilm formation” value [2] was 83-97% and the “effect on biofilm formation by the mutant, polystyrene surface” value ([3]; 1.56 μM) was “did not affect the biofilm formation”. For the same molecule, the “decrease of the amount of biofilm, polystyrene surface” value ([3]; 3.13 μM) was 72%, the “decrease of the amount of PIA formed on the cell surface” value (“decrease of the amount of PIA formed” for short) ([4]; 3.13 μM) was 7% and the “decrease of the amount of PIA formed” value ([4]; 12.5 μM) was 58%. For the same molecule, the “decrease of the amount of PIA formed” value ([4]; 50 μM) was 87%, the “PIA production (extracted from bacterial cells)” value ([4]; 3.13, 12.5 and 50 μM) was “PIA production was inhibited” and the “PIA released into the culture medium” value ([4]; 3.13, 12.5 and 50 μM) was “decreased after β-PGG treatment in a dose-dependent manner”. The inhibition at 1.9 µM (S. aureus SA113 [5]; coating with 1.9 μM β-PGG) was 62%, the inhibition at 5.7 µM (S. aureus SA113 [5]; coating with 5.7 μM β-PGG) was 85% and the “PIA production by four clinical isolates” value [6] was “inhibited PIA production”. For the same molecule, the anti-biofilm activity (Acinetobacter baumannii) was “potent to mild anti-biofilm activity”, the “reduction of biofilm formation” value (S. aureus SA113 [7]; 6.25 μM added at 0.5 hr after inoculation, DMSO = 100%) was 62% and the “reduction of biofilm formation” value (S. aureus SA113 [7]; 6.25 μM added at 1 hr after inoculation, DMSO = 100%) was 19%. The “reduction of biofilm formation” value (S. aureus SA113 [7]; 12.5 μM added at 0.5 and 1 hr after inoculation) was “more than 90%”, the “inhibition of biofilm formation” value (S. aureus SA113 [7]; added at 1.5 and 2 hr after inoculation) was “not inhibited” and the “time of addition after seeding at which β-PGG is effective” value (S. aureus SA113 [7]; added into the culture medium after seeding) was at most 1 h.
